{
  "source": "PubChem BioAssay AID721",
  "about": "(PCMD, 2007)",
  "note": "The source made the active and inactive calls. No rule for the calls is given here.",
  "data": [
    {"target": "Coagulation factor XI (Homo sapiens) (UniProt P03951)", "sequence (P03951 19-387 limits assumed)": "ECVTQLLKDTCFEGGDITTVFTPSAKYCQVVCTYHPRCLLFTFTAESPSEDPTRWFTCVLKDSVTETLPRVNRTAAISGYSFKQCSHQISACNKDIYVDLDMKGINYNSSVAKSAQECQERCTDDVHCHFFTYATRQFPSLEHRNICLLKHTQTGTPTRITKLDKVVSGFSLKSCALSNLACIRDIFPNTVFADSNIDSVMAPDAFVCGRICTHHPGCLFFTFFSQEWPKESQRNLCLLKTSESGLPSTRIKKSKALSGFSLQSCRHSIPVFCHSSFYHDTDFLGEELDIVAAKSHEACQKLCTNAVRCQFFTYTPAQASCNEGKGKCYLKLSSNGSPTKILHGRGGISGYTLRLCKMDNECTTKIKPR", "sequence (P03951 388-625 limits assumed)": "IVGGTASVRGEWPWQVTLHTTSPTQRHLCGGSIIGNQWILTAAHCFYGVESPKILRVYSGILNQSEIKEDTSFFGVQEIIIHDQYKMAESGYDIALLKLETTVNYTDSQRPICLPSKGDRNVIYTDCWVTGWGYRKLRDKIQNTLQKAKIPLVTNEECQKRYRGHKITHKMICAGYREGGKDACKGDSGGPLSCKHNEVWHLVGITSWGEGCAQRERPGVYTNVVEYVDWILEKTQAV", "test": "FXIa inhibitor IC50 values, dose response, biochemical, hits from single-well screen (AID 721)", "settings": "purified factor XIa enzymatic assay, fluorescence", "values": [
      {"smiles": "Cc1cc(NC(=O)COC(=O)c2c(C)nn(Cc3ccccc3)c2C)no1", "IC50": "> 50 µM (inactive)"},
      {"smiles": "CCc1ccc(NC(=O)Cn2nc(C(F)(F)F)c3c2CCC3)cc1", "IC50": "> 50 µM (inactive)"},
      {"smiles": "Cc1ccccc1C(=O)N=c1sccn1C", "IC50": "> 50 µM (inactive)"},
      {"smiles": "O=S(=O)(Cc1ccccc1)N1CCC(c2nc(-c3cccs3)no2)CC1", "IC50": "> 50 µM (inactive)"},
      {"smiles": "Cc1ccc(N(C(=O)c2ccccn2)C2(C(=O)NC3CCCC3)CCCCC2)cc1", "IC50": "> 50 µM (inactive)"},
      {"smiles": "COc1ccc(OCC(=O)Nc2cc(-c3nn(C)c(=O)c4ccccc34)ccc2OC)cc1", "IC50": "> 50 µM (inactive)"},
      {"smiles": "CCCC(=O)n1nc(-c2ccccc2)nc1SC", "IC50": "> 50 µM (inactive)"},
      {"smiles": "CCC1(c2ccccc2)C(=O)N(C)C(=O)N(C)C1=O", "IC50": "> 50 µM (inactive)"},
      {"smiles": "COc1ccc2c(=O)cc(-c3ccccc3)n(C)c2c1", "IC50": "> 50 µM (inactive)"},
      {"smiles": "O=C(c1cccc2ccccc12)n1nnc2ccccc21", "IC50": "> 50 µM (inactive)"},
      {"smiles": "Cc1cc(=O)[nH]c(-n2[nH]c(C)cc2=O)n1", "IC50": "> 50 µM (inactive)"},
      {"smiles": "O=C(CCSc1nnc2ccc3ccccc3n12)Nc1ccc(F)cc1", "IC50": "> 50 µM (inactive)"},
      {"smiles": "O=S(=O)(Nc1cccc2nsnc12)c1ccccc1", "IC50": "9.3 µM"},
      {"smiles": "O=C(NC(C(=O)c1ccccc1)n1c(=O)cc[nH]c1=S)c1ccccc1", "note": "(stereo not given)", "IC50": "> 50 µM (inactive)"},
      {"smiles": "C=CCn1c(=O)c2c(nc(Br)n2Cc2ccccc2Cl)n(C)c1=O", "IC50": "0.638 µM"},
      {"smiles": "CCn1nc(CC(=O)Nc2nnc(CC(=O)N3CCCC3)s2)c2ccccc2c1=O", "IC50": "> 50 µM (inactive)"},
      {"smiles": "O=c1cccc2n1CC1CC2CN(S(=O)(=O)c2ccccc2)C1", "note": "(stereo not given)", "IC50": "> 50 µM (inactive)"},
      {"smiles": "Cc1ccc(NC(=O)CCn2cccc2)cc1", "IC50": "> 50 µM (inactive)"},
      {"smiles": "COC(=O)C(Cc1c[nH]c2ccccc12)NC(C)=O", "note": "(stereo not given)", "IC50": "6.69 µM"},
      {"smiles": "CCc1c(O)nc(SCC(=O)NC(C)(C)C)n(-c2ccccc2)c1=O", "IC50": "> 50 µM (inactive)"},
      {"smiles": "O=c1c(-c2cc3ccccc3o2)[n+]([O-])c2ccccc2n1OCc1ccccn1", "IC50": "> 50 µM (inactive)"},
      {"smiles": "O=C(NCc1ccccc1)C1CCCN(S(=O)(=O)c2cccc3nonc23)C1", "note": "(stereo not given)", "IC50": "> 50 µM (inactive)"},
      {"smiles": "CCC1CC2CC(NC(C)=O)C1C2", "note": "(stereo not given)", "IC50": "0.588 µM"},
      {"smiles": "CCCc1nc2ccccc2c(=O)n1-c1ccc(OC)cc1", "IC50": "> 50 µM (inactive)"},
      {"smiles": "O=c1nc(-c2ccccc2)c2cc(Cl)ccc2[nH]1", "IC50": "> 50 µM (inactive)"},
      {"smiles": "CCC(CO)NCc1ccc(OC2CCCC2)cc1", "note": "(stereo not given)", "IC50": "> 50 µM (inactive)"},
      {"smiles": "CCCC1CCc2c(sc(N)c2C(N)=O)C1", "note": "(stereo not given)", "IC50": "> 50 µM (inactive)"},
      {"smiles": "COc1cc(OC)c2c(N)c(C#N)c(C(F)(F)C(F)(F)F)nc2c1", "IC50": "> 50 µM (inactive)"},
      {"smiles": "COCCN=C1Sc2nc3c(C)cccc3cc2CN1Cc1ccco1", "IC50": "0.745 µM"},
      {"smiles": "COc1ccc(S(=O)(=O)N2CCC(C(=O)N3CCc4ccccc4C3)CC2)cc1Cl", "IC50": "6.26 µM"},
      {"smiles": "COc1cc(OC)cc(-c2nnc(SCc3cccc(C(=O)O)c3)o2)c1", "IC50": "> 50 µM (inactive)"},
      {"smiles": "CCCN(CCC)C(C(=O)Nc1cccc(OC)c1)c1ccccc1", "note": "(stereo not given)", "IC50": "> 50 µM (inactive)"},
      {"smiles": "COc1ccccc1-n1cnnc1SCC(=O)Nc1nc(C)c(Cl)cc1Cl", "IC50": "10.2 µM"},
      {"smiles": "COc1cc(/C=c2\\sc3n(c2=O)CCCN=3)ccc1O", "IC50": "> 50 µM (inactive)"},
      {"smiles": "Cc1ccc(C(=O)n2nnc3ccccc32)cc1", "IC50": "2.39 µM"},
      {"smiles": "O=C(c1cn(-c2ccccc2)nc1-c1ccncc1)n1nnc2ccccc21", "IC50": "0.707 µM"},
      {"smiles": "O=C(Nc1ccccc1C(=O)N1CCOCC1)c1ccc(F)cc1", "IC50": "21.4 µM"},
      {"smiles": "N#Cc1cc2c(nc1SCC(=O)Nc1sc3c(c1C#N)CCC3)CCC2", "IC50": "> 50 µM (inactive)"},
      {"smiles": "CCOc1cccc2cc(C(N)=O)c(=NCc3ccccc3)oc12", "IC50": "> 50 µM (inactive)"},
      {"smiles": "CCn1c(SCC(=O)c2[nH]c(C)c(C(C)=O)c2C)nnc1-c1ccccc1", "IC50": "7.44 µM"},
      {"smiles": "O=C(Oc1ccc2c(=O)c(Cl)coc2c1)c1cccnc1", "IC50": "> 50 µM (inactive)"},
      {"smiles": "CCOC(=O)c1c(C)nc2c(c1C)c(=O)oc1ccccc12", "IC50": "> 50 µM (inactive)"},
      {"smiles": "Cn1c(SCC(=O)NC2CCCCC2)nnc1-c1cccc(N)c1", "IC50": "> 50 µM (inactive)"},
      {"smiles": "Cc1ccc(C(=O)n2nc(-c3cccnc3)nc2N)cc1", "IC50": "> 50 µM (inactive)"},
      {"smiles": "Cc1cc(C)n2nc(C(=O)Nc3ccc4c(c3)OCO4)cc2n1", "IC50": "> 50 µM (inactive)"},
      {"smiles": "COC(=O)c1[nH]c2ccc(Br)cc2c1NC(=O)CN1CCCc2ccccc21", "IC50": "> 50 µM (inactive)"},
      {"smiles": "Cc1ccc(NS(=O)(=O)c2ccc(OCC(=O)N3CCOCC3)cc2)cc1", "IC50": "> 50 µM (inactive)"},
      {"smiles": "CC(C)c1nc2ccc(NC(=O)C3CCCCC3)cc2[nH]1", "IC50": "> 50 µM (inactive)"},
      {"smiles": "CN(CCOc1ccccc1)c1ccc(S(=O)(=O)N2CCCCC2)cn1", "IC50": "> 50 µM (inactive)"},
      {"smiles": "Cc1cnc(C(=O)OCC(=O)NCc2ccccc2)cn1", "IC50": "> 50 µM (inactive)"},
      {"smiles": "Cc1c(NC(=O)c2cc3ccccc3o2)c(=O)n(-c2ccccc2)n1C", "IC50": "> 50 µM (inactive)"},
      {"smiles": "Cn1nnnc1SCC(=O)N(C1CCCCC1)C1CCCCC1", "IC50": "> 50 µM (inactive)"},
      {"smiles": "CCc1ccc(CC2S/C(=C(\\C#N)C(C)=O)NC2=O)cc1", "note": "(stereo not given)", "IC50": "> 50 µM (inactive)"},
      {"smiles": "O=C(CCCN1C(=O)c2ccccc2C1=O)NCC1CCCO1", "note": "(stereo not given)", "IC50": "14.6 µM"},
      {"smiles": "CCOc1cc(S(=O)(=O)N(Cc2ccccc2)Cc2ccccc2)c(OCC)cc1-n1cnnn1", "IC50": "> 50 µM (inactive)"},
      {"smiles": "N#Cc1ccc(NC(=O)COC(=O)CNC(=O)C2CCCCC2)cc1", "IC50": "> 50 µM (inactive)"},
      {"smiles": "CCOC(=O)c1c(C)n(Cc2ccccc2)c2ccc(OCC(O)Cn3nc(C)cc3C)cc12", "note": "(stereo not given)", "IC50": "> 50 µM (inactive)"},
      {"smiles": "CNCCCc1ccccc1", "IC50": "> 50 µM (inactive)"},
      {"smiles": "Cc1cccc(NC(=O)c2snc3c(=O)[nH]cnc23)c1", "IC50": "> 50 µM (inactive)"},
      {"smiles": "COc1ccc(OCCSc2ncn[nH]2)cc1", "IC50": "> 50 µM (inactive)"},
      {"smiles": "CCOC(=O)N=S(=O)(Oc1ccc([N+](=O)[O-])cc1)c1ccccc1", "note": "(stereo not given)", "IC50": "> 50 µM (inactive)"},
      {"smiles": "O=C(c1ccc(F)cc1)N1CCN(C(=O)c2cccnc2)CC1", "IC50": "> 50 µM (inactive)"},
      {"smiles": "CNC(=O)COC(=O)c1[nH]c(C)c(C(C)=O)c1C", "IC50": "> 50 µM (inactive)"},
      {"smiles": "COC(=O)c1sc(NC(=O)CC(C)C)c(C(=O)OC)c1C", "IC50": "> 50 µM (inactive)"},
      {"smiles": "COC(=O)CSc1nnc(C)n1-c1cccc(OC)c1", "IC50": "2.36 µM"},
      {"smiles": "COc1ccc(CC(=O)NCc2ccc3c(c2)OCO3)cc1", "IC50": "> 50 µM (inactive)"},
      {"smiles": "OCCCn1c(-c2ccccc2)nc(=S)c2c1CCCC2", "IC50": "> 50 µM (inactive)"},
      {"smiles": "Cc1c(O)ccc(C(=O)CN2C(=O)c3ccccc3C2=O)c1O", "IC50": "> 50 µM (inactive)"},
      {"smiles": "COc1ccc(Cn2nnnc2C(c2ccccc2Cl)N2CCC(C(N)=O)CC2)cc1", "note": "(stereo not given)", "IC50": "> 50 µM (inactive)"},
      {"smiles": "O=C(Oc1cccc(-n2cnnn2)c1)c1ccco1", "IC50": "4.06 µM"},
      {"smiles": "CCN(CC)CCNC(=O)C(C)c1nn(C)c(=O)c2ccccc12", "note": "(stereo not given)", "IC50": "> 50 µM (inactive)"},
      {"smiles": "COc1cccc(C(=O)N(Cc2ccccc2)Cc2cc3cc4c(cc3[nH]c2=O)OCCO4)c1", "IC50": "10.4 µM"},
      {"smiles": "CCOC(=O)c1cc2c(ccn2C)n1CC(=O)N1CCC(C)CC1", "IC50": "0.744 µM"},
      {"smiles": "CCOc1ccc(S(=O)(=O)NCc2ccc(OC)cc2)c2cccnc12", "IC50": "> 50 µM (inactive)"},
      {"smiles": "Cc1ccc(-c2csc(N3CCC(NS(=O)(=O)c4ccc5c(c4)OCCO5)CC3)n2)cc1", "IC50": "> 50 µM (inactive)"}
    ]}
  ]
}
